Source: publication PMC9679992, “Fusicoccin-A Targets Cancerous Inhibitor of Protein Phosphatase 2A by Stabilizing a C-Terminal Interaction with 14-3-3” (ACS Chemical Biology, 2022)
Where two headings read alike, the source gives them in different places. Peptide text beside a SMILES is read from it. * marks the point of attachment. Cbz = O=C(OCc1ccccc1)*

Tests used:
[1] = target: T1, 14-3-3η (N-terminally GST tagged) (Homo sapiens, UniProt Q04917); assay: HTRF assay of CIP2A C-terminal peptides with GST14-3-3η; type: binding, Hs; details: HTRF concentration–response, nonphosphorylated peptide; 10 nM GST14-3-3η; presence or absence of 10 μM FC-A
T1 construct: made in house; host or cells: Rosetta 2 (DE3)pLysS E. coli
T1 sequence (Q04917 1-246): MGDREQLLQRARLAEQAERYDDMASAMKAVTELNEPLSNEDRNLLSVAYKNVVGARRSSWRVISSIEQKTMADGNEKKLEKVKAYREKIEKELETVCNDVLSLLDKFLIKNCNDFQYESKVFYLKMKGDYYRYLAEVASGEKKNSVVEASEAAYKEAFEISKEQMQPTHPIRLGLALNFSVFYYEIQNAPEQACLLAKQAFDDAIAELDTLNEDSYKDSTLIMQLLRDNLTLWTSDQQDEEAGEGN
Source text: Therefore, using (non)phosphorylated C-terminal CIP2A peptides, we investigated whether 14-3-3 could directly interact with CIP2A (Figure 1C). First, we developed a homogeneous time-resolved FRET (HTRF) assay for this putative interaction and its phosphorylation dependence (Figure 1D). […] Europium is excited at a wavelength of 337 nm resulting in emission at a wavelength of 620 nm. If 14-3-3 interacts with the CIP2A peptide, resonance energy transfer can occur resulting in excitation and emission of XL665 at a wavelength of 665 nm.
Data is shown as mean ± SEM of three independent experiments. […] Data is presented as the mean ± SEM of three independent experiments.

ERα = details: cited from earlier work
GST-14-3-3η / CIP2A = assay: GST-14-3-3η pulldown of CIP2A, MDA-MB-468 cell lysates; type: binding; details: lysate preincubated with 200 μM ATP, 10 mM MgCl2, 1 hour 37 °C
Protocol: (§1) (A) Cartoon showing FC-A coupled to magnetic hydrazide beads. (B) Western blot showing the results of an FC-beads pulldown experiment in MDA-MB-468 cell lysates. (C) Western blot of the GST14-3-3η pulldown of CIP2A in MDA-MB-468 cell lysates. […] (D) Western blot of MDA-MB-468 cell lysates after treatment of cells with 30 μM FC-A or a vehicle control for 24 h before harvest. Quantification was performed after normalization to an actin loading control. […] Membrane was probed with our custom CIP2A pS904, C-terminal CIP2A, and actin antibodies. (E) Western blot of GST14-3-3η pulldown of CIP2A in MDA-MB-468 cell lysates from cells either treated with 30 μM FC-A or a vehicle control for 24 h before harvest. Representative Western blots are shown of three (B–D) or two (E) independent experiments.

GST-14-3-3η = target: T2, GST-14-3-3η (Homo sapiens, UniProt Q04917); assay: Fluorescent polarization, GST14-3-3η titrated to FAM-pCIP2A peptide; type: binding, Hs; details: FP, GST14-3-3η titrated to 100 nM FAM peptide, PBS pH 7.5, RT, 30 min
T2 construct: made in house; host or cells: Rosetta 2 (DE3)pLysS E. coli
T2 sequence (Q04917 1-246): T1 sequence (Q04917 1-246)
Protocol: Data is shown as mean ± SEM of three independent experiments. (E) Fluorescent polarization GST14-3-3η concentration–response curves generated in the presence of 10 μM FC-A or buffer using 100 nM of peptide 3. (F) Fluorescent polarization concentration–response curve of FC-A stabilizing the interaction between 1.5 μM GST14-3-3η and 100 nM peptide 3. Data is presented as the mean ± SEM of three independent experiments.
First, concentration–response curves were made using peptide 3, which was N-terminally labeled with fluorescein and in which Ser904 is phosphorylated by titrating to N-terminally GST-tagged 14-3-3η (GST-14-3-3η) at a fixed concentration of FC-A (10 μM) or a buffer control.
peptide was dissolved in phosphate saline buffer (PBS) with a pH of 7.5. Concentration curves of recombinant GST-14-3-3η were produced by mixing various concentrations of the protein diluted in assay buffer (PBS, pH=7.5) with a fixed 100 nM of the FAM labelled peptide and either a DMSO vehicle control or a fixed 10 μM Fusicoccin – A (FC-A). FC-A concentration curves were generated by mixing various concentrations of FC-A diluted in PBS with a fixed 100 nM of FAM - CIP2A and a fixed 4.7 μM of GST-14-3-3η. […]

[2] = test system: cancer cells, including breast cancer; details: FC-A and its derivatives; cited from earlier work
Source text: It has been shown that polo-like kinase 1 (PLK1) can bind to the C-terminal tip of CIP2A and phosphorylate its penultimate residue Ser904.[11] We hypothesized that phosphorylation of Ser904 could create a C-terminal binding site for the regulatory proteins 14-3-3, which act as molecular scaffolds in the cell through regulation of protein–protein interactions (PPIs) in key cellular processes. A unique feature of a subset of C-terminal 14-3-3 interactions is that they can be targeted by the diterpene glucoside Fusicoccin-A (FC-A) for PPI stabilization.[12],[13] In several studies, FC-A and its d ...

14-3-3η/pCIP2A complex = assay: Fluorescent polarization, FC-A stabilization of 14-3-3η/pCIP2A; design: species or system Hs; details: FP, FC-A titrated to 100 nM peptide 3 and 1.5 μM GST14-3-3η (legend; SI: 4.7 μM); PBS, RT, 30 min; mean of three independent experiments; read-out: EC50 (FC-A enhancing binding of 14-3-3η to pCIP2A)
Source text: Figure 1 The C-terminus of CIP2A contains a mode-III 14-3-3 binding motif. (A) CIP2A’s C-terminus overlaid with 14-3-3 mode-III binding motif. The putative phosphosite is highlighted red with an alignment of the C-terminal amino acid sequence of CIP2A from different species shown below. (B) Chemical structure of Fusicoccin-A. (C) Overview of N-terminally biotinylated or fluorescein labeled CIP2A peptides either non- or phosphorylated on Ser904. (D) Homogeneous time-resolved FRET (HTRF) assay in which an N-terminally GST tagged 14-3-3η is targeted with an anti-GST europium (Eu) cryptate labeled monoclonal antibody and CIP2A peptides 1 and 2 used are N-terminally biotinylated and labeled with streptavidin conjugated to XL665. Concentration–response curves are shown for peptide 1 (Ser904) and peptide 2 (pSer904) in the presence or absence of a fixed 10 μM FC-A and 10 nM GST14-3-3η. Data is shown as mean ± SEM of three independent experiments. […]
FC-A beads were produced in a two-step reaction as previously described by Feyerabend and Weiler, 1987 by first generating FC-aldehyde (FC-Ald) which, was subsequently coupled to magnetic hydrazide beads (Chemicell, Cat#1404). […] Before coupling to magnetic hydrazide beads reaction efficiency was determined by HPLC analysis. […]

CIP2A / 14-3-3 = assay: GST14-3-3η pulldown of CIP2A from FC-A treated MDA-MB-468 cells; type: cell-based; details: cells treated with 30 μM FC-A 24 h vs control; two independent experiments
Protocol: as §1, with “experiments. […]” for “experiments.”

CIP2A = type: cell-based
Protocol: as §1, with “experiments. […]” for “experiments.”

CIP2A Ser904 = type: cell-based
Protocol: as §1, with “experiments. […]” for “experiments.”

H^+-ATPase = details: 14-3-3/FC-A; cited from earlier work

In the case of “Bio-LSSGGKINPETVNL-S^904-I-COOH [peptide 1, N-terminally biotinylated nonphosphorylated C-terminal CIP2A peptide]”, the “interaction with 14-3-3” value [1] is reported as “does not interact with 14-3-3”.

For CC(C)C[C@@H](C=O)NC(=O)[C@H](CC(C)C)NC(=O)[C@H](CC(C)C)NC(=O)OCc1ccccc1 [MG132] (Cbz-Leu-Leu-Leu-aldehyde), the “effect on phosphorylation of ERα C-terminal tip” value (ERα; proteasome inhibitor MG132, in addition to FC-A) is listed as “additional requirement for phosphorylation of the C-terminal tip”.

For Nc1ncnc2c1ncn2[C@@H]1O[C@H](COP(=O)(O)OP(=O)(O)OP(=O)(O)O)[C@@H](O)[C@H]1O [ATP], the “effect on CIP2A pulldown by GST-14-3-3η” value (GST-14-3-3η / CIP2A) was “more CIP2A was identified in pulldown samples”.

Molecule CC[C@H](C)[C@H](NC(=O)[C@H](COP(=O)(O)O)NC(=O)[C@H](CC(C)C)NC(=O)[C@H](CC(N)=O)NC(=O)[C@@H](NC(=O)[C@@H](NC(=O)[C@H](CCC(=O)O)NC(=O)[C@@H]1CCCN1C(=O)[C@H](CC(N)=O)NC(=O)[C@@H](NC(=O)c1ccc2c(c1)C(=O)OC21c2ccc(O)cc2Oc2cc(O)ccc21)[C@@H](C)CC)[C@@H](C)O)C(C)C)C(=O)O [FAM-pCIP2A peptide] has an EC50 (GST-14-3-3η; buffer / DMSO control, read-out: EC50) of 118 µM and an EC50 (GST-14-3-3η; fixed 10 μM FC-A, read-out: EC50 (shift in presence of FC-A)) of 2.76 µM.

For C=CC(C)(C)OC[C@H]1O[C@H](O[C@@H]2C3=C([C@H](C)COC(C)=O)C[C@H](O)[C@]3(C)/C=C3/[C@@H](COC)CC[C@H]3[C@@H](C)[C@H]2O)[C@H](O)[C@@H](OC(C)=O)[C@@H]1O [FC-A, Fusicoccin-A], the “effect on detection of C-terminal phosphorylation of ERα” value (ERα; MCF-7 cells treated with FC-A) is listed as “necessary to detect C-terminal phosphorylation of the ERα”, the antiproliferative effects [2] is listed as “antiproliferative effects in cancer cells, including breast cancer” and the EC50 (14-3-3η/pCIP2A complex) is listed as 11.8 µM. For the same molecule, the “CIP2A in GST-14-3-3η pulldown” value (CIP2A / 14-3-3) was “more CIP2A could be detected in these samples compared to control cell lysates”, the “Fold Change (Norm. to CTL): CIP2A Tot.” value (CIP2A) was 0.79 and the “effect on total CIP2A in presence of cycloheximide” value (CIP2A; 30 μM FC-A with 100 µg/mL cycloheximide, 24 h, MDA-MB-468, three independent experiments) was “no changes in total CIP2A over a 24 h period”. The “effect on total CIP2A” value (CIP2A; FC-A 24 h, MDA-MB-468) was “did not affect total CIP2A”, the “Fold Change (Norm. to CTL): CIP2A pS904” value (CIP2A Ser904) was 2.55 and the “effect on Ser904 phosphorylation levels” value (CIP2A Ser904; FC-A 24 h, MDA-MB-468) was “Ser904 phosphorylation levels were enhanced”. For the same molecule, the “protection of penultimate C-terminal phosphorylation site” value (H^+-ATPase) was “shields the penultimate C-terminal phosphorylation site from phosphatases”.
